Results published in patent publication US20170281622A1, “DERIVATIVES OF MACROCYCLIC N-ARYL-2-AMINO-4-ARYL-PYRIMIDINE POLYETHERS AS INHIBITORS OF FTL3 AND JAK” (PIERRE FABRE MEDICAMENT, priority 2014, published 2017).
Positions count from the first letter of the chain named.

Key:
FLT3-ITD = biological target: T1, FLT3-ITD (Homo sapiens, UniProt P36888); assay: LanthaScreen TR-FRET binding test, FLT3-ITD; details: 15 nM protein, kinase tracer 236 3 nM, 25° C., 1 hour
T1 construct: fused on or other part: GST tag, inferred from detection with the anti-GST europium antibody
T1 sequence (P36888 1-993): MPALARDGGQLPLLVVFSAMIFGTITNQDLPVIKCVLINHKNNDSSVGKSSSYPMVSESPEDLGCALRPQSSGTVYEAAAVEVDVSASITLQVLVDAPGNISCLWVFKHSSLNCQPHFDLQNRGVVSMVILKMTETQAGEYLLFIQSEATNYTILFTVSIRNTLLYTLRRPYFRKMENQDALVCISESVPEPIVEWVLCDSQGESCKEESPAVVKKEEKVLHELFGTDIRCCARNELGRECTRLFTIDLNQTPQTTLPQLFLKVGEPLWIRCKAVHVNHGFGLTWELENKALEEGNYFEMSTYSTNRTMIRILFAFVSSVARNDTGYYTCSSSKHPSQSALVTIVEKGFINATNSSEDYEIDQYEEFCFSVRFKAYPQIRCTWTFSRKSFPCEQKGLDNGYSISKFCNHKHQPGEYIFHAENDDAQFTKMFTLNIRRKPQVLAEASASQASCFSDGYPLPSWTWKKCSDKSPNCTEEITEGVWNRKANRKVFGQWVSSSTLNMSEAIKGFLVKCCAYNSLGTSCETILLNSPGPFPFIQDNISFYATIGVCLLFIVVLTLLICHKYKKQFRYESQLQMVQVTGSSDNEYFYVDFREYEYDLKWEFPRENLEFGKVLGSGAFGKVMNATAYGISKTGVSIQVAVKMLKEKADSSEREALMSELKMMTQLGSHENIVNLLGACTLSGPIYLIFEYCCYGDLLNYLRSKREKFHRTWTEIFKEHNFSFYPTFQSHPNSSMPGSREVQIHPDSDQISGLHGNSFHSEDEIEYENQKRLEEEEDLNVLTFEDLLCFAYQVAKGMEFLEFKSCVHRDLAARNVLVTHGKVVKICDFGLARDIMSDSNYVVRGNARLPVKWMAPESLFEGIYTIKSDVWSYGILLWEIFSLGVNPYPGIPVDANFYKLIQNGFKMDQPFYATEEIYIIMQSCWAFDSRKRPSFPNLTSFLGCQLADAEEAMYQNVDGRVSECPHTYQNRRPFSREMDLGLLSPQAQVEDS
Experimental: (§1) FLT3 (#PV3182), JAK2 (#FV4210) and JAK3 (#PV3855) recombinant enzymes were purchased from Life Technologies, FLT3-ITD (#0778-0000-1) and FLT3^D835Y (#14-610) proteins were purchased from ProQinase and Merck Millipore, respectively. All the tests were carried out in 384-well plates. The principle of these binding tests is based on the LanthaScreen® TR-FRET methodology from Life Technologies.
(§2) FLT3 tests. The reaction mixture (15 μL total volume) contains the following compounds: 15 nM FLT3, FLT3-ITD or FLT3^D835Y, 3 nM kinase tracer 236 (Life Technologies, #PV5592) and 6 nM LanthaScreen® anti-GST antibody coupled to a europium chelate (Life Technologies, #PV5594) for FLT3-ITD and FLT3^D835Y or 6 nM LanthaScreen® anti-His antibody coupled to a europium chelate (Life Technologies, #PV5596) for FLT3.
(§3) The compounds are evaluated at 8 different concentrations prepared by making dilutions from a starting 10 mM stock solution in dimethylsulfoxide (DMSO) (Sigma, #D8418). The final DMSO concentration in the test is 1%. The reaction is carried out at 25° C. for 1 hour and detected on the EnVision® reader (Perkin Elmer) according to the recommendations of the supplier, Life Technologies.
(§4) The results are presented (Table 1) as the concentration values of the compound at which 50% of the kinase activity is inhibited, IC50 (μM), generated using the PRISM software (GraphPad).

MV4-11 = assay: Antiproliferative activity, MV4-11 cells (ATPLite); assay type: cell-based; details: Homo sapiens; MV4-11 cell line (acute myeloid leukemia, FLT3-ITD), 72 h, cell viability by ATPLite; read-out: EC50 MV411
Experimental: (§5) The characteristics of the cell lines used are as follows (Table 2).
(§6) MV4-11 and MOLM-13 cell lines are cultured in the culture medium specified in Table 2 above and according to the supplier's recommendations. The tests are carried out in 96-well plates. The cells are divided in two at D0. At D1, they are seeded and treated with the compounds at various concentrations and incubated for 72 h at 37° C. and 5% CO2. The dilution of the compounds from stock solutions in DMSO (Sigma, #D8418) was made semi-logarithmically for a final concentration in the culture medium of 0.1%. At day 4, cell viability is evaluated by assaying the ATP released by the living cells using the ATPLite® kit (Perkin Elmer, #6016947). The EC50 values (concentration of the compound necessary to obtain 50% of the maximum effect) are calculated using curve-fitting software.

JAK2 = biological target: T2, JAK2 (Homo sapiens, UniProt O60674); assay: LanthaScreen TR-FRET binding test, JAK2; details: recombinant enzyme 15 nM, kinase tracer 236 150 nM, 25° C., 1 hour
T2 construct: purchased Life Technologies FV4210
Experimental: as §1
(§7) JAK tests. The reaction mixture (15 μL total volume) contains the following compounds: 15 nM JAK2 or JAK3, 150 nM kinase tracer 236 (Life Technologies, #PV5592) for JAK2 or 3 nM for JAK3 and 6 nM LanthaScreen® anti-GST antibody coupled to a europium chelate (Life Technologies, #PV5594) for both enzymes.
as §3, §4

FLT3 = biological target: T3, FLT3 (Homo sapiens, UniProt P36888); assay: LanthaScreen TR-FRET binding test, FLT3; details: recombinant enzyme 15 nM, kinase tracer 236 3 nM, 25° C., 1 hour
T3 construct: purchased Life Technologies PV3182
T3 sequence (P36888 27-993): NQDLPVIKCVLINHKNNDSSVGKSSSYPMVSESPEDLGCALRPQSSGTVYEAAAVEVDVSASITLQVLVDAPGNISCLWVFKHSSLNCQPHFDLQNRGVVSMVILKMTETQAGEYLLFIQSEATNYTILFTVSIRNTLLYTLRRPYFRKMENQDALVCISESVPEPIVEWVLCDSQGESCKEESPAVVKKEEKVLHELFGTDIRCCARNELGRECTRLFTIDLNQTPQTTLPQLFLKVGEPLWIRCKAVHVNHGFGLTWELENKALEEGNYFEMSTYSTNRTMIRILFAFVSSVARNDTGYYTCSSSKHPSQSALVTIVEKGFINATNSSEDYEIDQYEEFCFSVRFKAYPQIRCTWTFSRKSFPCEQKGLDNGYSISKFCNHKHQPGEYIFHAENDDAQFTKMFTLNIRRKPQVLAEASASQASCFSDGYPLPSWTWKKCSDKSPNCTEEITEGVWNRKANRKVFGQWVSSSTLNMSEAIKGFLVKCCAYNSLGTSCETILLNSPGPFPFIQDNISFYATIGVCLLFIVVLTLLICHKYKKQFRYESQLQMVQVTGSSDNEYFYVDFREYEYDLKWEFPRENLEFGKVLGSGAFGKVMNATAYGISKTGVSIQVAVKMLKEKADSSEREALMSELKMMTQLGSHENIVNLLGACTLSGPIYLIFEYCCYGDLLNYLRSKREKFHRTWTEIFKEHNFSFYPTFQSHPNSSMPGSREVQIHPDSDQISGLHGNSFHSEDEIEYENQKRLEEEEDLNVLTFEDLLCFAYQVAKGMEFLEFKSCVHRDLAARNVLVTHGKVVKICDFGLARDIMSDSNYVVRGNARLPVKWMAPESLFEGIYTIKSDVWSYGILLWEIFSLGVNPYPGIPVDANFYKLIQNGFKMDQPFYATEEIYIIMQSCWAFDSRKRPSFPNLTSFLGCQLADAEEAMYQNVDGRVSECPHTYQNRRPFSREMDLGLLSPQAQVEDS
Experimental: as §1, §2, §3, §4

JAK3 = biological target: T4, JAK3 (Homo sapiens, UniProt P52333); assay: LanthaScreen TR-FRET binding test, JAK3; details: recombinant enzyme 15 nM, kinase tracer 236 3 nM, 25° C., 1 hour
T4 construct: purchased Life Technologies PV3855
T4 sequence (P52333 1-1124): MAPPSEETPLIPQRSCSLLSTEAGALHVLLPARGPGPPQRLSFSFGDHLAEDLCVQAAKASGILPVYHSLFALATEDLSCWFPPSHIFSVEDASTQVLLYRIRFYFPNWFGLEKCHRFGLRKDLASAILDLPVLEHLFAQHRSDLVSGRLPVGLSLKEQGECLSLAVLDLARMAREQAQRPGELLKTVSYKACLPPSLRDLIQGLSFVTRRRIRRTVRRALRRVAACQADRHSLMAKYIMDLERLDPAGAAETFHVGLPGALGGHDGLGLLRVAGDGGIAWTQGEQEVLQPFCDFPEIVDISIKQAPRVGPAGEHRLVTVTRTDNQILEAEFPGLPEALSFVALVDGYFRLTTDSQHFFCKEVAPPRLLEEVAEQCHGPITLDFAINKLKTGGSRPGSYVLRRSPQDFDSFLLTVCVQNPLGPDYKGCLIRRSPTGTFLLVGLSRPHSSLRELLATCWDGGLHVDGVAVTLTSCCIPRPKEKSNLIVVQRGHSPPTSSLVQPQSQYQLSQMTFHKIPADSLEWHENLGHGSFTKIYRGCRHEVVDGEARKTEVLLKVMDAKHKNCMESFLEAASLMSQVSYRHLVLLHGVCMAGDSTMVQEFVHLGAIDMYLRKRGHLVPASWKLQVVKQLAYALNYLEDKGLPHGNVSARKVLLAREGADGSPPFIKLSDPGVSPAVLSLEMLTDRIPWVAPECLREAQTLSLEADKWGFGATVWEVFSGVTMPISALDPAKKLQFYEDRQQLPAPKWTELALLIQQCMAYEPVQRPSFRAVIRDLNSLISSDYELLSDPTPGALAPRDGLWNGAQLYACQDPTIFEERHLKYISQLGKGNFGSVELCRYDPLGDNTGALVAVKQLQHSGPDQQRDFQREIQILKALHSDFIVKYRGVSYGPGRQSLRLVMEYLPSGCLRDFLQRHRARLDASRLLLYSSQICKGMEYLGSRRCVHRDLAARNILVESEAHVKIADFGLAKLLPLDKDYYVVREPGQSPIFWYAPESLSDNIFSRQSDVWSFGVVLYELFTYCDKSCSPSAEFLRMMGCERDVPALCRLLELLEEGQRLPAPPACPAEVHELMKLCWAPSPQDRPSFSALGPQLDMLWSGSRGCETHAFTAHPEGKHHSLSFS
Experimental: as §1, §7, §3, §4

MOLM-13 = assay: Antiproliferative activity, MOLM-13 cells (ATPLite); assay type: cell-based; details: Homo sapiens; MOLM-13 cell line (acute myeloid leukemia, FLT3-ITD), 72 h, cell viability by ATPLite; read-out: EC50 MOLM13
Experimental: as §5, §6

FLT3^D835Y = biological target: T5, FLT3^D835Y (Homo sapiens, UniProt P36888, D835Y); assay: LanthaScreen TR-FRET binding test, FLT3 D835Y; details: 15 nM protein, kinase tracer 236 3 nM, 25° C., 1 hour
T5 construct: purchased Merck Millipore 14-610
T5 sequence (P36888 27-993 D835Y): T3 sequence (P36888 27-993) with D809Y
Experimental: as §1, §2, §3, §4

T2 sequence (O60674 whole entry): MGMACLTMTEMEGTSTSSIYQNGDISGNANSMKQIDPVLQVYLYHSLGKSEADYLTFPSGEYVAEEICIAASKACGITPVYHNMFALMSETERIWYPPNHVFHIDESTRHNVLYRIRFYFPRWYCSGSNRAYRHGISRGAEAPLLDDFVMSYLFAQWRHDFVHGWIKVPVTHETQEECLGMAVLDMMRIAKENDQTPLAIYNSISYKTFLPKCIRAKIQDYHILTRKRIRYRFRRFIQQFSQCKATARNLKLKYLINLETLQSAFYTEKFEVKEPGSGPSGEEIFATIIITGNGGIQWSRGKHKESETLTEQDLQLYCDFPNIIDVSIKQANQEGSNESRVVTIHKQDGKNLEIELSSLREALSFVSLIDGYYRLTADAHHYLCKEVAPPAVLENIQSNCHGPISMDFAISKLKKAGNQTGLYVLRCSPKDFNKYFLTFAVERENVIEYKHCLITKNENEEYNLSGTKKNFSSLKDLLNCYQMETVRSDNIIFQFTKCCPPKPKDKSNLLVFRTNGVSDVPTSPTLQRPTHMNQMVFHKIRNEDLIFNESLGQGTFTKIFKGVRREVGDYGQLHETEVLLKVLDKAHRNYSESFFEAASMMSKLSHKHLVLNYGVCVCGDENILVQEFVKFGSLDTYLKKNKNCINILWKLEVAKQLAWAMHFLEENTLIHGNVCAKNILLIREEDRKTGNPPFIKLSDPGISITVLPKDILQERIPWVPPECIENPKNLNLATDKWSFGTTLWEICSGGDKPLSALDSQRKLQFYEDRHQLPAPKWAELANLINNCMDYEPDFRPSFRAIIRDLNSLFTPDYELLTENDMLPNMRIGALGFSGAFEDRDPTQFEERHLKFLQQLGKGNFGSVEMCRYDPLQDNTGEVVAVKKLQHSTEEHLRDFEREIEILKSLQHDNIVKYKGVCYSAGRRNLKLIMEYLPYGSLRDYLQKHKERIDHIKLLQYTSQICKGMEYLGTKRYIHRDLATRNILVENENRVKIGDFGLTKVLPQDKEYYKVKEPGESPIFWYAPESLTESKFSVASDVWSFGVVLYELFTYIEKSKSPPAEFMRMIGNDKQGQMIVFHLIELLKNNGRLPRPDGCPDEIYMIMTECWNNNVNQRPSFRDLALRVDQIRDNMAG

Structure (SMILES)	IC50 (FLT3-ITD)	EC50 (MV4-11)	IC50 (JAK2)	IC50 (FLT3)	IC50 (JAK3)	EC50 (MOLM-13)	IC50 (FLT3^D835Y)
CN1CCN(c2ccc3cc2OCCOCCOc2cccc(c2)-c2ccnc(n2)N3)CC1 [Compound 4]	14.5 nM	57.3 nM	7.7 nM	25.5 nM	50 nM	18.9 nM	35 nM
CN1CCC(N2CCN(c3ccc4cc3OCCOCCOc3cccc(c3)-c3ccnc(n3)N4)CC2)CC1 [Compound 6]	120 nM	246 nM	5.2 nM	110 nM	50 nM	145 nM	41.2 nM
CN1CCN(c2cc3cc(c2)OCCOCCOc2cccc(c2)-c2ccnc(n2)N3)CC1 [Compound 46]	1.6 nM	1.8 nM	60 nM	4.7 nM	100 nM	3.9 nM	6.2 nM
